In paper PMC7534330, “UHPLC-MS/MS method for pharmacokinetic and bioavailability determination of five bioactive components in raw and various processed products of Polygala tenuifolia in rat plasma” (Pharmaceutical Biology, 2020):

Experiments:
[1] = Pharmacokinetics of five components in rat plasma after oral administration of RPT, LPT and HPT extracts (UHPLC-MS/MS); settings: male, SD, in vivo, 1.9 g/kg; for AUC(0-t): AUC0-t; for AUC(0-inf): AUC0-∞; for MRT last: MRT0-t; for half-life: t1/2
Method: (§1) A Thermo Hypersil Gold C18 column (3.0 × 100 mm, i.d.; 3 μm) was used for chromatographic separation. An aqueous 10 mM ammonium acetate solution (A) and acetonitrile (B) were selected as the mobile phase components. The optimal gradient program involved the following steps: 5% B (0–1 min), changing to 85% B (1–3.5 min), 85% B (3.5–4.0 min), changing to 5% B (4.0–4.1 min) and 5% B (4.1–5.0 min). The flow rate was set to 0.4 mL/min, the autosampler was maintained at 4 °C and the injection volume was 5 μL.
(§2) UHPLC-MS/MS was conducted by an Applied Biosystems (AB) Sciex Exion LC system (Foster City, CA) connected to a 6500 + triple quad tandem mass spectrometer with an electrospray ionization source. All detection and quantifications were carried out in positive multiple reaction monitoring (MRM) mode. The optimized parameters were programmed as follows: ion source temperature, 500 °C; curtain gas pressure, 30 kPa; ion source gas 1 pressure, 55 kPa; ion source gas 2 pressure, 55 kPa; and ion spray voltage, […]. The chemical structures and ion mass spectra of targeted compounds are shown in Figure 1. The precursor ion and product ion were m/z 517.1 → 174.9 for A5, m/z 547.0 → 204.9 for A6, m/z 753.2 → 205.2 for DSS, m/z 681.3 → 443.3 for TFSA, m/z 236.8 → 103.2 for TMCA and m/z 136.9 → 92.9 for IS. All data were acquired by using AB Sciex Analyst software (version 1.6.3).
(§3) After thawing the frozen blood samples at room temperature, a 100 μL aliquot of plasma was spiked with 50 μL of the IS working solution in 2 mL EP tubes, and 750 μL of methanol was added into each of the tubes. Then, these tubes were mixed on a multi-tube Vortexer for 0.5 min before centrifugation at 11,800×g for 10 min. Finally, 200 μL of the obtained supernatant was transferred to a fresh autosampler vial, and then 5 μL of the sample was injected for analysis.
Male SD rats were randomly divided into four groups (n = 6 in each group), including the RPT group, LPT group, HPT group and control group. All oral administration samples were mixed with 0.5% CMC-Na (w/v) and then given to rats at a dose equivalent to 1.9 g/kg of RPT extract. The control group was orally treatment with equal volume of 0.5% CMC-Na solution. After a single administration, all blood samples were collected from the orbital vein into heparinized centrifuge tubes before administration (0 h) and at 0.083, 0.17, 0.25, 0.5, 0.75, 1, 1.5, 2, 3, 5, 8 and 12 h after administration and then centrifuged at 4 °C and 11,800×g for 10 min. The separated supernatant samples were preserved at −80 °C until they were measured.
(§4) The elementary pharmacokinetic parameters of plasma samples were analyzed by DAS 2.0 pharmacokinetic software. One-way analysis of variance (ANOVA) was used for statistical comparison for pharmacokinetic and interaction studies. A p-value < 0.05 indicated a significant difference. The main parameters considered were as follows: AUC0–∞ (the area under the blood concentration-time curve from zero to infinity initial plasma concentration), MRT (the mean residence time), Cmax (peak plasma concentration) and Tmax (time to reach Cmax for oral dose), t1/2 (elimination half-life) (He et al. [2015]). The absolute bioavailability (F) was evaluated as follows: F(%)=(AUCoral×Dosei.v.)/(AUCi.v.×Doseoral)×100%

[2] = Pharmacokinetics and absolute bioavailability of five compounds after oral and i.v. administration (UHPLC-MS/MS); type: in vivo; settings: rat, in vivo; for AUCΔ0-t (dose-normalized) / AUCΔ0-∞ (dose-normalized) / CΔmax (dose-normalized) / half-life / Tmax: SD
Method: as §1, §2, §3
The SD rats were randomly divided into oral and i.v. groups for A5, A6, DSS, TFSA and TMCA administration (n = 6 in each group). The oral doses of A5, A6, DSS, TFSA and TMCA groups were 7.40, 11.60, 16.00, 50.00 and 3.11 mg/kg, respectively, and the corresponding i.v. doses were 0.74, 1.16, 1.60, 5.00 and 0.31 mg/kg, respectively. Blood samples were collected from the suborbital vein into heparinized tubes before and 0, 0.083, 0.17, 0.25, 0.5, 1, 2, 3, 5 and 8 h after administration. The treatment method of blood samples was the same as that mentioned above.
as §4

[3] = Stability of the five analytes in rat plasma; type: in vitro ADME; settings: rat; for Long-term stability, Mean: 4 weeks; for Short-term stability, Mean: 5 h; for Auto-sampler stability, Mean: 24 h
Method: Stock standards of A5, A6, DSS, TFSA, TMCA and IS were prepared in methanol at a concentration of 1 mg/mL. A series of working standard solutions of the targeted compounds ranging from 10 to 20,000 ng/mL and the IS solution at 600 ng/mL were prepared by diluting the stock solutions with methanol and maintained at −20 °C. Calibration standards were freshly prepared by spiking the series of standard solutions (30 μL) including the IS into blank rat plasma (270 μL) to achieve concentrations of 1, 10, 50, 100, 500, 1000, 1600 and 2000 ng/mL. Quality control (QC) samples were prepared independently at low (2 ng/mL), medium (600 ng/mL) and high (1600 ng/mL) concentrations following the same method for the five compounds.
Stability studies included short-term stability (5 h at room temperature, i.e. 25 °C), freeze-thaw stability (three consecutive freeze-thaw cycles from −20 °C to room temperature), autosampler stability (24 h storage in the autosampler at 4 °C) and long-term stability (4 weeks storage at −80 °C). The stability data of all analytes are presented in Supplementary Table S4.

| Cmax [1] [µg/mL] | AUCΔ0-t (dose-normalized) ([2]; iv) [ng·h/mL] | AUCΔ0-∞ (dose-normalized) ([2]; iv) [ng·h/mL] | CΔmax (dose-normalized) ([2]; iv) [ng/mL] | half-life ([2]; iv) [h] | AUCΔ0-t (dose-normalized) ([2]; po) [ng·h/mL] | AUCΔ0-∞ (dose-normalized) ([2]; po) [ng·h/mL] | CΔmax (dose-normalized) ([2]; po) [ng/mL] | half-life ([2]; po) [h] | Tmax ([2]; po) [h] | F, absolute bioavailability [2] | Freeze-thaw stability, Mean ([3]; 2 ng/mL) [%] | Freeze-thaw stability, Mean ([3]; 600 ng/mL) [%] | Freeze-thaw stability, Mean ([3]; 1600 ng/mL) [%] | Long-term stability, Mean ([3]; 2 ng/mL) [%] | Long-term stability, Mean ([3]; 600 ng/mL) [%] | Long-term stability, Mean ([3]; 1600 ng/mL) [%] | Short-term stability, Mean ([3]; 2 ng/mL) [%] | Short-term stability, Mean ([3]; 600 ng/mL) [%] | Short-term stability, Mean ([3]; 1600 ng/mL) [%] | SMILES | further results |
| --- | --- | --- | --- | --- | --- | --- | --- | --- | --- | --- | --- | --- | --- | --- | --- | --- | --- | --- | --- | --- | --- |
| 0.169 ± 0.0161 | 368.32 ± 57.16 | 368.34 ± 57.18 | 1784.32 ± 136.39 | 1.22 ± 0.07 | 11.99 ± 2.01 | 12.01 ± 2.00 | 9.21 ± 2.30 | 1.27 ± 0.55 | 0.25 | 3.25 % of dose | 92.1 | 93.5 | 101.6 | 88.6 | 97.9 | 96.6 | 94.4 | 95.2 | 98.3 | COc1cc(/C=C/C(=O)O[C@H]2[C@H](O)[C@@H](CO)O[C@@]2(CO)O[C@H]2O[C@H](CO)[C@@H](O)[C@H](O)[C@H]2O)ccc1O [A5, Sibiricose A5] | Tmax [1]: 2.60 ± 0.71 h; AUC(0-t) [1]: 0.552 ± 0.0311 µg·h/mL; AUC(0-inf) [1]: 0.553 ± 0.0471 µg·h/mL; MRT last [1]: 2.64 ± 0.18 h; Tmax ([1]; Tmax): 2 h; half-life [1]: 1.23 ± 0.21 h; Auto-sampler stability, Mean ([3]; 2 ng/mL): 89.4%; Auto-sampler stability, Mean ([3]; 600 ng/mL): 94.2%; Auto-sampler stability, Mean ([3]; 1600 ng/mL): 98.7% |
| 0.183 ± 0.0308 | 299.15 ± 100.23 | 299.16 ± 100.23 | 1204.66 ± 249.66 | 0.59 ± 0.1 | 8.82 ± 2.40 | 8.82 ± 2.40 | 4.95 ± 1.64 | 0.62 ± 0.16 | 0.5 | 2.95 % of dose | 92.4 | 91.5 | 98.3 | 93.5 | 96.3 | 96.5 | 91.5 | 94.7 | 97.4 | COc1cc(C=CC(=O)OC2C(O)C(CO)OC2(CO)OC2OC(CO)C(O)C(O)C2O)cc(OC)c1O (stereo not shown) [A6, Sibiricose A6] | AUC(0-t) [1]: 0.57 ± 0.179 µg·h/mL; AUC(0-inf) [1]: 0.572 ± 0.179 µg·h/mL; MRT last [1]: 3.21 ± 0.78 h; Tmax ([1]; Tmax): 3.2 ± 1.64 h; half-life [1]: 1.43 ± 0.12 h; Auto-sampler stability, Mean ([3]; 2 ng/mL): 87.5%; Auto-sampler stability, Mean ([3]; 600 ng/mL): 92.1%; Auto-sampler stability, Mean ([3]; 1600 ng/mL): 97.3% |
| 0.0741 ± 0.0302 | 106.32 ± 12.09 | 107.00 ± 12.09 | 682.88 ± 120.92 | 0.98 ± 0.27 | 2.51 ± 1.07 | 2.86 ± 1.33 | 4.39 ± 1.69 | 1.01 ± 0.45 | 0.17 | 2.36 % of dose | 89.3 | 97.3 | 99.7 | 95.3 | 97.3 | 93.2 | 95.3 | 98.5 | 98.1 | COc1cc(C=CC(=O)OCC2OC(OC3(CO)OC(CO)C(O)C3OC(=O)C=Cc3cc(OC)c(O)c(OC)c3)C(O)C(O)C2O)cc(OC)c1O (stereo not shown) [DSS, 3,6′-disinapoyl sucrose] | Auto-sampler stability, Mean ([3]; 2 ng/mL): 92.1%; Auto-sampler stability, Mean ([3]; 600 ng/mL): 97.7%; Auto-sampler stability, Mean ([3]; 1600 ng/mL): 98.6% |
| 0.107 ± 0.0477 | 163.79 ± 11.83 | 163.80 ± 11.83 | 375.56 ± 13.65 | 0.49 ± 0.06 | 1.92 ± 0.85 | 1.92 ± 0.85 | 1.88 ± 0.76 | 0.92 ± 0.21 | ~0.19 | 1.17 % of dose | 96.5 | 96.3 | 97.4 | 89.9 | 96.3 | 96.2 | 97.6 | 97.9 | 98.5 | COc1cc(/C=C/C(=O)O[C@H]2[C@H](O)[C@@H](CO)O[C@@]2(CO)O[C@H]2O[C@H](COC(=O)c3ccc(O)cc3)[C@@H](O)[C@H](O)[C@H]2O)cc(OC)c1OC [TFSA, tenuifoliside A] | AUC(0-t) [1]: 0.284 ± 0.185 µg·h/mL; AUC(0-inf) [1]: 0.297 ± 0.194 µg·h/mL; MRT last [1]: 2.92 ± 0.58 h; Auto-sampler stability, Mean ([3]; 2 ng/mL): 96.6%; Auto-sampler stability, Mean ([3]; 600 ng/mL): 98.2%; Auto-sampler stability, Mean ([3]; 1600 ng/mL): 96.3% |
